Species: Rattus norvegicus
Assay: DrugMatrix - Regimen: Daily Repeat
Format: toxicity, organism-based, Sprague-Dawley
Parameters: regimen Daily Repeat, gender Male, age 6-8 weeks
Settings: in vivo, po, route oral GAVAGE, vehicle .5 % CMC; for ALANINE AMINOTRANSFERASE / ALBUMIN / ALKALINE PHOSPHATASE / ASPARTATE AMINOTRANSFERASE / BLOOD UREA NITROGEN / CARBON DIOXIDE / CHLORIDE / CHOLESTEROL / CREATINE PHOSPHOKINASE / CREATININE / GLUCOSE / LACTATE DEHYDROGENASE / LIPASE / PHOSPHORUS / POTASSIUM / SODIUM / TOTAL BILIRUBIN / TOTAL PROTEIN / URIC ACID: tissue Plasma; for ABSOLUTE BASOPHIL / ABSOLUTE EOSINOPHIL / ABSOLUTE LYMPHOCYTE / ABSOLUTE MONOCYTE / ABSOLUTE SEGMENTED NEUTROPHIL / BASOPHIL / EOSINOPHIL / ERYTHROCYTE COUNT / HEMATOCRIT / HEMOGLOBIN / LEUKOCYTE COUNT / LYMPHOCYTE / MEAN CORPUSCULAR HEMOGLOBIN / MEAN CORPUSCULAR HEMOGLOBIN CONCENTRATION / MEAN CORPUSCULAR VOLUME / MONOCYTE / NEUTROPHIL / NUCLEATED RED BLOOD CELLS / PLATELET COUNT: tissue Blood
[1] = 10 mg/kg, 72 h, dose level Low, time 3 day
[2] = 10 mg/kg, 120 h, dose level Low, time 5 day
[3] = 2500 mg/kg, 72 h, dose level High, time 3 day

Compound: CCOC(=O)[C@H](CCc1ccccc1)N[C@@H](C)C(=O)N1Cc2ccccc2C[C@H]1C(=O)O
- ALANINE AMINOTRANSFERASE [1]: 57.33 u/L
- ALBUMIN [1]: 4.43 G/DL
- ALKALINE PHOSPHATASE [1]: 414 u/L
- ASPARTATE AMINOTRANSFERASE [1]: 111.67 u/L
- BLOOD UREA NITROGEN [1]: 19.33 mg/dL
- CARBON DIOXIDE [1]: 27 mmol/L
- CHLORIDE [1]: 101.33 MEQ/L
- CHOLESTEROL [1]: 71.67 mg/dL
- CREATINE PHOSPHOKINASE [1]: 1227 u/L
- CREATININE [1]: 0.15 mg/dL
- GLUCOSE [1]: 179.67 mg/dL
- LACTATE DEHYDROGENASE [1]: 229.67 u/L
- LIPASE [1]: 10 u/L
- PHOSPHORUS [1]: 12.13 mg/dL
- POTASSIUM [1]: 6.89 MEQ/L
- SODIUM [1]: 142.53 MEQ/L
- TOTAL BILIRUBIN [1]: 0.23 mg/dL
- TOTAL PROTEIN [1]: 6.1 G/DL
- URIC ACID [1]: 1.73 mg/dL
- ABSOLUTE BASOPHIL [2]: 0 CELLS/uL
- ABSOLUTE EOSINOPHIL [2]: 0 CELLS/uL
- ABSOLUTE LYMPHOCYTE [2]: 9146.67 CELLS/uL
- ABSOLUTE MONOCYTE [2]: 149.33 CELLS/uL
- ABSOLUTE SEGMENTED NEUTROPHIL [2]: 970.67 CELLS/uL
- BASOPHIL [2]: 0%
- EOSINOPHIL [2]: 0%
- ERYTHROCYTE COUNT [2]: 5.39 x10E6/uL
- HEMATOCRIT [2]: 34.63%
- HEMOGLOBIN [2]: 13.67 G/DL
- LEUKOCYTE COUNT [2]: 10.27 x10E3/uL
- LYMPHOCYTE [2]: 89.33%
- MEAN CORPUSCULAR HEMOGLOBIN [2]: 25.4 pg
- MEAN CORPUSCULAR HEMOGLOBIN CONCENTRATION [2]: 39.47 G/DL
- MEAN CORPUSCULAR VOLUME [2]: 64.27 fL
- MONOCYTE [2]: 1.33%
- NEUTROPHIL [2]: 9.33%
- NUCLEATED RED BLOOD CELLS [2]: 0 /100WBC
- PLATELET COUNT [2]: 1332.67 x10E3/uL
- ALANINE AMINOTRANSFERASE [2]: 53 u/L
- ALBUMIN [2]: 4.43 G/DL
- ALKALINE PHOSPHATASE [2]: 351.67 u/L
- ASPARTATE AMINOTRANSFERASE [2]: 77 u/L
- BLOOD UREA NITROGEN [2]: 17.33 mg/dL
- CARBON DIOXIDE [2]: 31.33 mmol/L
- CHLORIDE [2]: 101.33 MEQ/L
- CHOLESTEROL [2]: 100.67 mg/dL
- CREATINE PHOSPHOKINASE [2]: 265.67 u/L
- CREATININE [2]: 0.14 mg/dL
- GLUCOSE [2]: 137.33 mg/dL
- LACTATE DEHYDROGENASE [2]: 201.67 u/L
- LIPASE [2]: 10 u/L
- PHOSPHORUS [2]: 11.8 mg/dL
- POTASSIUM [2]: 6.69 MEQ/L
- SODIUM [2]: 143.93 MEQ/L
- TOTAL BILIRUBIN [2]: 0.23 mg/dL
- TOTAL PROTEIN [2]: 6.3 G/DL
- URIC ACID [2]: 1.2 mg/dL
- ABSOLUTE BASOPHIL [3]: 0 CELLS/uL
- ABSOLUTE EOSINOPHIL [3]: 56.33 CELLS/uL
- ABSOLUTE LYMPHOCYTE [3]: 14978 CELLS/uL
- ABSOLUTE MONOCYTE [3]: 125.33 CELLS/uL
- ABSOLUTE SEGMENTED NEUTROPHIL [3]: 2373.67 CELLS/uL
- BASOPHIL [3]: 0%
- EOSINOPHIL [3]: 0.33%
- ERYTHROCYTE COUNT [3]: 5.38 x10E6/uL
- HEMATOCRIT [3]: 35.27%
- HEMOGLOBIN [3]: 13.67 G/DL
- LEUKOCYTE COUNT [3]: 17.53 x10E3/uL
- LYMPHOCYTE [3]: 85.67%
- MEAN CORPUSCULAR HEMOGLOBIN [3]: 25.4 pg
- MEAN CORPUSCULAR HEMOGLOBIN CONCENTRATION [3]: 38.77 G/DL
- MEAN CORPUSCULAR VOLUME [3]: 65.5 fL
- MONOCYTE [3]: 0.67%
- NEUTROPHIL [3]: 13.33%
- NUCLEATED RED BLOOD CELLS [3]: 0 /100WBC
- PLATELET COUNT [3]: 1317 x10E3/uL
- ALANINE AMINOTRANSFERASE [3]: 63.33 u/L
- ALBUMIN [3]: 4.37 G/DL
- ALKALINE PHOSPHATASE [3]: 310 u/L
- ASPARTATE AMINOTRANSFERASE [3]: 80.67 u/L
- BLOOD UREA NITROGEN [3]: 19.33 mg/dL
- CARBON DIOXIDE [3]: 28.67 mmol/L
- CHLORIDE [3]: 98.67 MEQ/L
- CHOLESTEROL [3]: 107 mg/dL
- CREATINE PHOSPHOKINASE [3]: 346.67 u/L
- CREATININE [3]: 0.21 mg/dL
- GLUCOSE [3]: 155.67 mg/dL
- LACTATE DEHYDROGENASE [3]: 272.33 u/L
- LIPASE [3]: 12.33 u/L
- PHOSPHORUS [3]: 12.8 mg/dL
- POTASSIUM [3]: 6.92 MEQ/L
- SODIUM [3]: 140.37 MEQ/L
- TOTAL BILIRUBIN [3]: 0.17 mg/dL
- TOTAL PROTEIN [3]: 6.17 G/DL
- URIC ACID [3]: 1.6 mg/dL

— ChEMBL document CHEMBL3885881, “DrugMatrix”
